Measured values from ChEMBL document CHEMBL1201861, “Genomics of Drug Sensitity in Cancer screening data, Wellcome Trust Sanger Institute”.

How the values were obtained:
Experiment in all cases: cells
NCI-H28 = format: functional, cell-based, Homo sapiens; details: Homo sapiens, NCI-H28
Description: SANGER: Inhibition of human NCI-H28 cell growth in a cell viability assay.

CTB-1 = format: functional, cell-based; details: Homo sapiens
Description: SANGER: Inhibition of human CTB-1 cell growth in a cell viability assay.

LAN-6 = format: functional, cell-based, Homo sapiens; details: Homo sapiens, LAN-6
Description: SANGER: Inhibition of human LAN-6 cell growth in a cell viability assay.

NCI-H2122 = format: functional, cell-based, Homo sapiens; details: Homo sapiens, NCI-H2122
Description: SANGER: Inhibition of human NCI-H2122 cell growth in a cell viability assay.

SK-PN-DW = format: functional, cell-based; details: Homo sapiens
Description: SANGER: Inhibition of human SK-PN-DW cell growth in a cell viability assay.

COR-L88 = format: functional, cell-based; details: Homo sapiens
Description: SANGER: Inhibition of human COR-L88 cell growth in a cell viability assay.

SNU-C2B = format: functional, cell-based, Homo sapiens; details: Homo sapiens, SNU-C2B
Description: SANGER: Inhibition of human SNU-C2B cell growth in a cell viability assay.

GT3TKB = format: functional, cell-based, Homo sapiens; details: Homo sapiens, GT3TKB
Description: SANGER: Inhibition of human GT3TKB cell growth in a cell viability assay.

NCI-H2170 = format: functional, cell-based, Homo sapiens; details: Homo sapiens, NCI-H2170
Description: SANGER: Inhibition of human NCI-H2170 cell growth in a cell viability assay.

BV-173 = format: functional, cell-based; details: Homo sapiens
Description: SANGER: Inhibition of human BV-173 cell growth in a cell viability assay.

PC-14 = format: functional, cell-based, Homo sapiens; details: Homo sapiens, PC-14
Description: SANGER: Inhibition of human PC-14 cell growth in a cell viability assay.

HT-29 = format: functional, cell-based, Homo sapiens; details: Homo sapiens, HT-29
Description: SANGER: Inhibition of human HT-29 cell growth in a cell viability assay.

C2BBe1 = format: functional, cell-based, Homo sapiens; details: Homo sapiens, C2BBe1
Description: SANGER: Inhibition of human C2BBe1 cell growth in a cell viability assay.

BPH-1 = format: functional, cell-based, Homo sapiens; details: Homo sapiens, BPH-1
Description: SANGER: Inhibition of human BPH-1 cell growth in a cell viability assay.

KYSE-180 = format: functional, cell-based, Homo sapiens; details: Homo sapiens, KYSE-180
Description: SANGER: Inhibition of human KYSE-180 cell growth in a cell viability assay.

RPMI-8866 = format: functional, cell-based; details: Homo sapiens
Description: SANGER: Inhibition of human RPMI-8866 cell growth in a cell viability assay.

MHH-ES-1 = format: functional, cell-based, Homo sapiens; details: Homo sapiens, MHH-ES-1
Description: SANGER: Inhibition of human MHH-ES-1 cell growth in a cell viability assay.

A-427 = format: functional, cell-based, Homo sapiens; details: Homo sapiens, A-427
Description: SANGER: Inhibition of human A427 cell growth in a cell viability assay.

A204 = format: functional, cell-based, Homo sapiens; details: Homo sapiens, A204
Description: SANGER: Inhibition of human A204 cell growth in a cell viability assay.

LXF-289 cell line = format: functional, cell-based, Homo sapiens; details: Homo sapiens, LXF-289
Description: SANGER: Inhibition of human LXF-289 cell growth in a cell viability assay.

Calu-6 = format: functional, cell-based, Homo sapiens; details: Homo sapiens, Calu-6
Description: SANGER: Inhibition of human Calu-6 cell growth in a cell viability assay.

CGTH-W-1 = format: functional, cell-based, Homo sapiens; details: Homo sapiens, CGTH-W-1
Description: SANGER: Inhibition of human CGTH-W-1 cell growth in a cell viability assay.

J82 = format: functional, cell-based; details: Homo sapiens
Description: SANGER: Inhibition of human J82 cell growth in a cell viability assay.

COLO-680N = format: functional, cell-based, Homo sapiens; details: Homo sapiens, COLO-680N
Description: SANGER: Inhibition of human COLO-680N cell growth in a cell viability assay.

COLO-678 = format: functional, cell-based, Homo sapiens; details: Homo sapiens, COLO-678
Description: SANGER: Inhibition of human COLO-678 cell growth in a cell viability assay.

DJM-1 = format: functional, cell-based, Homo sapiens; details: Homo sapiens, DJM-1
Description: SANGER: Inhibition of human DJM-1 cell growth in a cell viability assay.

TK-10 = format: functional, cell-based, Homo sapiens; details: Homo sapiens, TK-10
Description: SANGER: Inhibition of human TK10 cell growth in a cell viability assay.

SAOS-2 = format: functional, cell-based, Homo sapiens; details: Homo sapiens, SAOS-2
Description: SANGER: Inhibition of human Saos-2 cell growth in a cell viability assay.

NB13 = format: functional, cell-based, Homo sapiens; details: Homo sapiens, NB13
Description: SANGER: Inhibition of human NB13 cell growth in a cell viability assay.

COLO-792 = format: functional, cell-based, Homo sapiens; details: Homo sapiens, COLO-792
Description: SANGER: Inhibition of human COLO-792 cell growth in a cell viability assay.

SK-MEL-28 = format: functional, cell-based; details: Homo sapiens
Description: SANGER: Inhibition of human SK-MEL-28 cell growth in a cell viability assay.

YKG-1 = format: functional, cell-based, Homo sapiens; details: Homo sapiens, YKG-1
Description: SANGER: Inhibition of human YKG-1 cell growth in a cell viability assay.

CP50-MEL-B = format: functional, cell-based, Homo sapiens; details: Homo sapiens, CP50-MEL-B
Description: SANGER: Inhibition of human CP50-MEL-B cell growth in a cell viability assay.

GAK = format: functional, cell-based, Homo sapiens; details: Homo sapiens, GAK
Description: SANGER: Inhibition of human GAK cell growth in a cell viability assay.

VM-CUB-1 = format: functional, cell-based; details: Homo sapiens
Description: SANGER: Inhibition of human VM-CUB-1 cell growth in a cell viability assay.

HSC-2 = format: functional, cell-based, Homo sapiens; details: Homo sapiens, HSC-2
Description: SANGER: Inhibition of human HSC-2 cell growth in a cell viability assay.

D-502MG = format: functional, cell-based, Homo sapiens; details: Homo sapiens, D-502MG
Description: SANGER: Inhibition of human D-502MG cell growth in a cell viability assay.

CAL-12T = format: functional, cell-based, Homo sapiens; details: Homo sapiens, CAL-12T
Description: SANGER: Inhibition of human CAL-12T cell growth in a cell viability assay.

LN-405 = format: functional, cell-based, Homo sapiens; details: Homo sapiens, LN-405
Description: SANGER: Inhibition of human LN-405 cell growth in a cell viability assay.

769-P = format: functional, cell-based, Homo sapiens; details: Homo sapiens, 769-P
Description: SANGER: Inhibition of human 769-P cell growth in a cell viability assay.

BHT-101 = format: functional, cell-based, Homo sapiens; details: Homo sapiens, BHT-101
Description: SANGER: Inhibition of human BHT-101 cell growth in a cell viability assay.

PANC-03-27 = format: functional, cell-based, Homo sapiens; details: Homo sapiens, PANC-03-27
Description: SANGER: Inhibition of human PANC-03-27 cell growth in a cell viability assay.

SHP77 = format: functional, cell-based, Homo sapiens, SHP-77; details: Homo sapiens, SHP77
Description: SANGER: Inhibition of human SHP-77 cell growth in a cell viability assay.

NCI-H1623 = format: functional, cell-based, Homo sapiens; details: Homo sapiens, NCI-H1623
Description: SANGER: Inhibition of human NCI-H1623 cell growth in a cell viability assay.

J-RT3-T3-5 = format: functional, cell-based; details: Homo sapiens
Description: SANGER: Inhibition of human J-RT3-T3-5 cell growth in a cell viability assay.

LAMA-84 = format: functional, cell-based; details: Homo sapiens
Description: SANGER: Inhibition of human LAMA-84 cell growth in a cell viability assay.

BB30-HNC = format: functional, cell-based, Homo sapiens; details: Homo sapiens, BB30-HNC
Description: SANGER: Inhibition of human BB30-HNC cell growth in a cell viability assay.

TE-9 = format: functional, cell-based, Homo sapiens; details: Homo sapiens, TE-9
Description: SANGER: Inhibition of human TE-9 cell growth in a cell viability assay.

LU-99A = format: functional, cell-based, Homo sapiens; details: Homo sapiens, LU-99A
Description: SANGER: Inhibition of human LU-99A cell growth in a cell viability assay.

KNS-42 = format: functional, cell-based, Homo sapiens; details: Homo sapiens, KNS-42
Description: SANGER: Inhibition of human KNS-42 cell growth in a cell viability assay.

HD-MY-Z = format: functional, cell-based, Homo sapiens; details: Homo sapiens, HD-MY-Z
Description: SANGER: Inhibition of human HD-MY-Z cell growth in a cell viability assay.

## C=CCc1cccc(/C=N/NC(=O)CN2CCN(Cc3ccccc3)CC2)c1O [PAC-1]
NCI-H28
  IC50: > 2560 nM
CTB-1
  IC50: 1440 nM
LAN-6
  IC50: > 2560 nM
NCI-H2122
  IC50: > 2560 nM
SK-PN-DW
  IC50: > 2560 nM
COR-L88
  IC50: > 2560 nM
SNU-C2B
  IC50: > 2560 nM
GT3TKB
  IC50: > 2560 nM
NCI-H2170
  IC50: > 2560 nM
BV-173
  IC50: > 2560 nM
PC-14
  IC50: > 2560 nM
HT-29
  IC50: > 2560 nM
C2BBe1
  IC50: > 2560 nM
BPH-1
  IC50: > 2560 nM
KYSE-180
  IC50: > 2560 nM
RPMI-8866
  IC50: > 2560 nM
MHH-ES-1
  IC50: > 2560 nM
A-427
  IC50: > 2560 nM
A204
  IC50: > 2560 nM
LXF-289 cell line
  IC50: > 2560 nM
Calu-6
  IC50: > 2560 nM
CGTH-W-1
  IC50: > 2560 nM
J82
  IC50: > 2560 nM
COLO-680N
  IC50: > 2560 nM
COLO-678
  IC50: > 2560 nM
DJM-1
  IC50: > 2560 nM
TK-10
  IC50: > 2560 nM
SAOS-2
  IC50: > 2560 nM
NB13
  IC50: > 2560 nM
COLO-792
  IC50: > 2560 nM
SK-MEL-28
  IC50: > 2560 nM
YKG-1
  IC50: > 2560 nM
CP50-MEL-B
  IC50: > 2560 nM
GAK
  IC50: > 2560 nM
VM-CUB-1
  IC50: > 2560 nM
HSC-2
  IC50: > 2560 nM
D-502MG
  IC50: > 2560 nM
CAL-12T
  IC50: > 2560 nM
LN-405
  IC50: > 2560 nM
769-P
  IC50: > 2560 nM
BHT-101
  IC50: > 2560 nM
PANC-03-27
  IC50: 760 nM
SHP77
  IC50: > 2560 nM
NCI-H1623
  IC50: > 2560 nM
J-RT3-T3-5
  IC50: 1200 nM
LAMA-84
  IC50: > 2560 nM
BB30-HNC
  IC50: > 2560 nM
TE-9
  IC50: > 2560 nM
LU-99A
  IC50: > 2560 nM
KNS-42
  IC50: > 2560 nM
HD-MY-Z
  IC50: > 2560 nM
